Reference: patent US20100160454A1, “ANTIMICROBIAL AGENTS, COMPOSITIONS AND PRODUCTS CONTAINING THE SAME, AND METHODS OF USING THE COMPOSITIONS AND PRODUCTS” (Eastman Chemical Company, priority 2008, published 2010)

Tests used:
Test in all cases: Microbiological challenge testing in BPW broth, graded subculture counts
Type in all cases: cell-based
[1] = test system: Aeromonas sp. Wild type
How it was run: (§1)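 Strains grown in TSB with 1% dextrose at 35 °C for ≥96 h. Inoculum added to BPW broth with 1% dextrose, with or without test material (w/v), to 10^5–10^6 CFU/mL at time zero. Counts by spread-plating serial 1:10 dilutions in pH 7.2 phosphate buffer on PCA, incubated at 35 °C for ≥48 h.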

[2] = test system: Escherichia coli ATCC 25922; conditions: E. Coli
How it was run: as §1

[3] = test system: Burkholderia cepacia Wild type; conditions: B. cepacia
How it was run: as §1

[4] = test system: Proteus vulgaris Wild type
How it was run: as §1

[5] = test system: Staphylococcus epidermidis ATCC 12228
How it was run: as §1

[6] = test system: Staphylococcus aureus ATCC 25923; conditions: S. aureus
How it was run: as §1

Structure (SMILES): OCC1CCCCC1CO (stereo not drawn) [1,2-CHDM, 1,2-cyclohexanedimethanol]
- Aeromonas sp growth grade, 3 day ([1]; 0.5% weight/volume): 5 (More than 10,000 colonies estimated (thus more than 100,000 CFU/mL))
- Aeromonas sp growth grade, 14 day ([1]; 0.5% weight/volume): 4 (1000 to 10,000 colonies countable (thus 10,000 CFU/mL to 100,000 CFU/mL))
- Aeromonas sp growth grade, 30 day ([1]; 0.5% weight/volume): 4 (1000 to 10,000 colonies countable (thus 10,000 CFU/mL to 100,000 CFU/mL))
- Aeromonas sp growth grade, 3 day ([1]; 1.25% weight/volume): 3 (100 to 1000 colonies (thus 1000 to 10,000 CFU/mL))
- Aeromonas sp growth grade, 14 day ([1]; 1.25% weight/volume): 2 (52 to 100 colonies counted (thus 520 to 1000 CFU/mL))
- Aeromonas sp growth grade, 30 day ([1]; 1.25% weight/volume): 1 (0 to 51 colonies counted (thus 10 to 510 CFU/mL based on 0.1-mL sample))
- Aeromonas sp growth grade, 3 day ([1]; 2.5% weight/volume): 0
- Aeromonas sp growth grade, 14 day ([1]; 2.5% weight/volume): 1 (0 to 51 colonies counted (thus 10 to 510 CFU/mL based on 0.1-mL sample))
- Aeromonas sp growth grade, 30 day ([1]; 2.5% weight/volume): 0
- Aeromonas sp growth grade, 3 day ([1]; 5.0% weight/volume): 0
- Aeromonas sp growth grade, 14 day ([1]; 5.0% weight/volume): 0
- Aeromonas sp growth grade, 30 day ([1]; 5.0% weight/volume): 0
- Grade ([2]; 0.5% (wt/vol), 3 day): 5 (More than 10,000 colonies estimated (thus more than 100,000 CFU/mL))
- Grade ([2]; 0.5% (wt/vol), 14 day): 4 (1000 to 10,000 colonies countable (thus 10,000 CFU/mL to 100,000 CFU/mL))
- Grade ([2]; 0.5% (wt/vol), 30 day): 4 (1000 to 10,000 colonies countable (thus 10,000 CFU/mL to 100,000 CFU/mL))
- Grade ([2]; 1.25% (wt/vol), 3 day): 4 (1000 to 10,000 colonies countable (thus 10,000 CFU/mL to 100,000 CFU/mL))
- Grade ([2]; 1.25% (wt/vol), 14 day): 2 (52 to 100 colonies counted (thus 520 to 1000 CFU/mL))
- Grade ([2]; 1.25% (wt/vol), 30 day): 3 (100 to 1000 colonies (thus 1000 to 10,000 CFU/mL))
- Grade ([2]; 2.5% (wt/vol), 3 day): 2 (52 to 100 colonies counted (thus 520 to 1000 CFU/mL))
- Grade ([2]; 2.5% (wt/vol), 14 day): 0
- Grade ([2]; 2.5% (wt/vol), 30 day): 0
- Grade ([2]; 5.0% (wt/vol), 3 day): 0
- Grade ([2]; 5.0% (wt/vol), 14 day): 0
- Grade ([2]; 5.0% (wt/vol), 30 day): 0
- Grade ([3]; 0.5% (wt/vol), 3 day): 4 (1000 to 10,000 colonies countable (thus 10,000 CFU/mL to 100,000 CFU/mL))
- Grade ([3]; 0.5% (wt/vol), 14 day): 4 (1000 to 10,000 colonies countable (thus 10,000 CFU/mL to 100,000 CFU/mL))
- Grade ([3]; 0.5% (wt/vol), 30 day): 4 (1000 to 10,000 colonies countable (thus 10,000 CFU/mL to 100,000 CFU/mL))
- Grade ([3]; 1.25% (wt/vol), 3 day): 1 (0 to 51 colonies counted (thus 10 to 510 CFU/mL based on 0.1-mL sample))
- Grade ([3]; 1.25% (wt/vol), 14 day): 0
- Grade ([3]; 1.25% (wt/vol), 30 day): 0
- Grade ([3]; 2.5% (wt/vol), 3 day): 0
- Grade ([3]; 2.5% (wt/vol), 14 day): 0
- Grade ([3]; 2.5% (wt/vol), 30 day): 0
- Grade ([3]; 5.0% (wt/vol), 3 day): 0
- Grade ([3]; 5.0% (wt/vol), 14 day): 0
- Grade ([3]; 5.0% (wt/vol), 30 day): 0
- P. vulgaris growth grade, 3 day ([4]; 0.5% weight/volume): 4 (1000 to 10,000 colonies countable (thus 10,000 CFU/mL to 100,000 CFU/mL))
- P. vulgaris growth grade, 13 day ([4]; 0.5% weight/volume): 4 (1000 to 10,000 colonies countable (thus 10,000 CFU/mL to 100,000 CFU/mL))
- P. vulgaris growth grade, 30 day ([4]; 0.5% weight/volume): 4 (1000 to 10,000 colonies countable (thus 10,000 CFU/mL to 100,000 CFU/mL))
- P. vulgaris growth grade, 3 day ([4]; 1.25% weight/volume): 2.3
- P. vulgaris growth grade, 13 day ([4]; 1.25% weight/volume): 1 (0 to 51 colonies counted (thus 10 to 510 CFU/mL based on 0.1-mL sample))
- P. vulgaris growth grade, 30 day ([4]; 1.25% weight/volume): 0
- P. vulgaris growth grade, 3 day ([4]; 2.5% weight/volume): 1 (0 to 51 colonies counted (thus 10 to 510 CFU/mL based on 0.1-mL sample))
- P. vulgaris growth grade, 13 day ([4]; 2.5% weight/volume): 0
- P. vulgaris growth grade, 30 day ([4]; 2.5% weight/volume): 0
- P. vulgaris growth grade, 3 day ([4]; 5.0% weight/volume): 0
- P. vulgaris growth grade, 13 day ([4]; 5.0% weight/volume): 0
- P. vulgaris growth grade, 30 day ([4]; 5.0% weight/volume): 0
- S. epidermidis growth grade, 3 day ([5]; 0.5% weight/volume): 4 (1000 to 10,000 colonies countable (thus 10,000 CFU/mL to 100,000 CFU/mL))
- S. epidermidis growth grade, 13 day ([5]; 0.5% weight/volume): 3 (100 to 1000 colonies (thus 1000 to 10,000 CFU/mL))
- S. epidermidis growth grade, 30 day ([5]; 0.5% weight/volume): 4 (1000 to 10,000 colonies countable (thus 10,000 CFU/mL to 100,000 CFU/mL))
- S. epidermidis growth grade, 3 day ([5]; 1.25% weight/volume): 2.3
- S. epidermidis growth grade, 13 day ([5]; 1.25% weight/volume): 1 (0 to 51 colonies counted (thus 10 to 510 CFU/mL based on 0.1-mL sample))
- S. epidermidis growth grade, 30 day ([5]; 1.25% weight/volume): 3 (100 to 1000 colonies (thus 1000 to 10,000 CFU/mL))
- S. epidermidis growth grade, 3 day ([5]; 2.5% weight/volume): 0
- S. epidermidis growth grade, 13 day ([5]; 2.5% weight/volume): 0
- S. epidermidis growth grade, 30 day ([5]; 2.5% weight/volume): 0
- S. epidermidis growth grade, 3 day ([5]; 5.0% weight/volume): 0
- S. epidermidis growth grade, 13 day ([5]; 5.0% weight/volume): 0
- S. epidermidis growth grade, 30 day ([5]; 5.0% weight/volume): 0
- Grade ([6]; 0.5% (wt/vol), 3 day): 4 (1000 to 10,000 colonies countable (thus 10,000 CFU/mL to 100,000 CFU/mL))
- Grade ([6]; 0.5% (wt/vol), 14 day): 4 (1000 to 10,000 colonies countable (thus 10,000 CFU/mL to 100,000 CFU/mL))
- Grade ([6]; 0.5% (wt/vol), 30 day): 4 (1000 to 10,000 colonies countable (thus 10,000 CFU/mL to 100,000 CFU/mL))
- Grade ([6]; 1.25% (wt/vol), 3 day): 3.3
- Grade ([6]; 1.25% (wt/vol), 14 day): 2.7
- Grade ([6]; 1.25% (wt/vol), 30 day): 4 (1000 to 10,000 colonies countable (thus 10,000 CFU/mL to 100,000 CFU/mL))
- Grade ([6]; 2.5% (wt/vol), 3 day): 0
- Grade ([6]; 2.5% (wt/vol), 14 day): 0
- Grade ([6]; 2.5% (wt/vol), 30 day): 0
- Grade ([6]; 5.0% (wt/vol), 3 day): 0
- Grade ([6]; 5.0% (wt/vol), 14 day): 0
- Grade ([6]; 5.0% (wt/vol), 30 day): 0
